{
  "source": "patent US20090018134A1",
  "about": "“Compounds - 945” (AstraZeneca AB, priority 2007, published 2009)",
  "target": "T1, mTOR (Homo sapiens, UniProt P42345)",
  "T1 construct": "FLAG; made in house",
  "T1 sequence (P42345 1362-2549)": "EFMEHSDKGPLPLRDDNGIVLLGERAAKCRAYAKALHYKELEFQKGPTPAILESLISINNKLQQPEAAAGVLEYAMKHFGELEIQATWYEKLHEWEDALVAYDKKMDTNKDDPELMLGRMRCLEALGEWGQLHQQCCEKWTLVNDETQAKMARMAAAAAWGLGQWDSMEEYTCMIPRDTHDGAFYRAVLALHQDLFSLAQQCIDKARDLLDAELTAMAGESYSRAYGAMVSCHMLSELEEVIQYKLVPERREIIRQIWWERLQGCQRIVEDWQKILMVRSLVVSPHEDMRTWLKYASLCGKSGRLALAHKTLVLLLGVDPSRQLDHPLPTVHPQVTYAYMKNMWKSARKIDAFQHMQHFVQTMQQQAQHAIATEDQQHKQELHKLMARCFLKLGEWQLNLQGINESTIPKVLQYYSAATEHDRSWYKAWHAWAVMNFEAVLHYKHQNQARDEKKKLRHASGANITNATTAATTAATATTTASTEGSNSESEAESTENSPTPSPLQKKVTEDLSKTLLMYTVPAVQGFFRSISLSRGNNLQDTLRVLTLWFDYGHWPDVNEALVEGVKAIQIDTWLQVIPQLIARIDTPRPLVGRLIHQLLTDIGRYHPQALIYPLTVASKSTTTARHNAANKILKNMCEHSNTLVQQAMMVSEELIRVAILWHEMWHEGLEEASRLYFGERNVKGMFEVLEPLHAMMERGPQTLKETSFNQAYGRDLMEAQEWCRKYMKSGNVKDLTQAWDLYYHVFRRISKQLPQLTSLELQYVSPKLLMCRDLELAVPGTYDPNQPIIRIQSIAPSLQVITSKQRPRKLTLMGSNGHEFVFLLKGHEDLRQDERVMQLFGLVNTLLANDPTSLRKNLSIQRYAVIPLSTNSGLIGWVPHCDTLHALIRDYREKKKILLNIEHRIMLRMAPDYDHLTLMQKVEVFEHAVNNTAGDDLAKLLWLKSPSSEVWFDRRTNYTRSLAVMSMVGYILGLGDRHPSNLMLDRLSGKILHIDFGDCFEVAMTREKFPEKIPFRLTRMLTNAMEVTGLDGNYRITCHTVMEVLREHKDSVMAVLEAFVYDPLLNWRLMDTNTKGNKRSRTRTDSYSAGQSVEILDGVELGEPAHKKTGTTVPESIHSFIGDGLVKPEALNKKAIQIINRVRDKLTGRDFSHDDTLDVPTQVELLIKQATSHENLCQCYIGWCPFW",
  "assay": "In Vitro mTOR Kinase Assay (Echo), Test (a)(ii)",
  "type": "biochemical",
  "in_short": "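AlphaScreen read-out: biotinylated substrate phosphorylation was detected with anti-p70 S6K (T389) 1A5 antibody, Protein A acceptor and streptavidin donor beads after overnight dark incubation at room temperature. Enzyme was FLAG-mTOR 1362-2549 from stable HEK293 cells.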",
  "key": {"[1]": {"conditions": "table of enzyme assay Test (a)(ii), read-out: Test (a)(ii) IC50"}, "[2]": {"conditions": "read-out: mTOR Kinase Assay (Echo)"}},
  "note": "pIC50: −log10 of the molar value. Read-outs that look alike come from different tables or passages of the source.",
  "data": [
    {"smiles": "C[C@H]1COCCN1c1cc(C2(S(=O)(=O)c3ccccc3)CCOCC2)nc(-c2ccc(NC(=O)NCCO)cc2)n1", "note": "[Example 36db, 1-[4-[4-[4-(benzenesulfonyl)oxan-4-yl]-6-[(3S)-3-methylmorpholin-4-yl]pyrimidin-2-yl]phenyl]-3-(2-hydroxyethyl)urea]", "values": [
      {"measurement": "pIC50", "setting": "[1]", "value": 7.68}
    ]},
    {"smiles": "CCNC(=O)Nc1ccc(-c2nc(N3CCOC[C@@H]3C)cc(C3(S(=O)(=O)CCCOC(F)F)CC3)n2)cc1", "note": "[Example 96c, 1-[4-[4-[1-[3-(difluoromethoxy)propylsulfonyl]cyclopropyl]-6-[(3S)-3-methylmorpholin-4-yl]pyrimidin-2-yl]phenyl]-3-ethylurea]", "values": [
      {"measurement": "pIC50", "setting": "[1]", "value": 7.57}
    ]},
    {"smiles": "C[C@H]1COCCN1c1cc(C2(S(C)(=O)=O)CC2)nc(-c2ccc(NC(=O)NC3COC3)cc2)n1", "note": "[Example 2ac, 1-[4-[4-[(3S)-3-methylmorpholin-4-yl]-6-(1-methylsulfonylcyclopropyl)pyrimidin-2-yl]phenyl]-3-(oxetan-3-yl)urea]", "values": [
      {"measurement": "pIC50", "setting": "[2]", "value": 8.19}
    ]},
    {"smiles": "Cc1csc(S(=O)(=O)C2(c3cc(N4CCOC[C@@H]4C)nc(-c4ccc(NC(=O)N[C@@H](C)CO)cc4)n3)CC2)n1", "note": "[Example 64ac, 3-[(2S)-1-hydroxypropan-2-yl]-1-[4-[4-[(3S)-3-methylmorpholin-4-yl]-6-[1-[(4-methyl-1,3-thiazol-2-yl)sulfonyl]cyclopropyl]pyrimidin-2-yl]phenyl]urea]", "values": [
      {"measurement": "pIC50", "setting": "[1]", "value": 8.28}
    ]},
    {"smiles": "C[C@H]1COCCN1c1cc(C2(S(=O)(=O)CCO)CC2)nc(-c2ccc(NC(=O)NCCO)cc2)n1", "note": "[Example 16b, 3-(2-hydroxyethyl)-1-[4-[4-[1-(2-hydroxyethylsulfonyl)cyclopropyl]-6-[(3S)-3-methylmorpholin-4-yl]pyrimidin-2-yl]phenyl]urea]", "values": [
      {"measurement": "pIC50", "setting": "[1]", "value": 8.24}
    ]},
    {"smiles": "C[C@H]1COCCN1c1cc(C2(S(=O)(=O)c3ccc(NCCO)c(Cl)c3)CC2)nc(-c2ccc(NC(=O)NCCO)cc2)n1", "note": "[Example 95i, 1-[4-[4-[1-[3-chloro-4-(2-hydroxyethylamino)phenyl]sulfonylcyclopropyl]-6-[(3S)-3-methylmorpho-lin-4-yl]pyrimidin-2-yl]phenyl]-3-(2-hydroxyethyl)urea]", "values": [
      {"measurement": "pIC50", "setting": "[1]", "value": 8.32}
    ]},
    {"smiles": "CNC(=O)Nc1ccc(-c2nc(N3CCOC[C@@H]3C)cc(C3(S(=O)(=O)c4ccc(OC(F)F)cc4)CC3)n2)cc1", "note": "[Example 64a, 1-[4-[4-[1-[4-(difluoromethoxy)phenyl]sulfonyl-cyclopropyl]-6-[(3S)-3-methylmorpholin-4-yl]pyrimidin-2-yl]phenyl]-3-methylurea]", "values": [
      {"measurement": "pIC50", "setting": "[1]", "value": 8.28}
    ]},
    {"smiles": "C[C@H]1COCCN1c1cc(C2(S(=O)(=O)c3ccc(F)cc3)CC2)nc(-c2ccc(NC(=O)Nc3ccc(C(F)(F)F)cc3)cc2)n1", "note": "[Example 8k, 1-[4-[4-[1-(4-fluorophenyl)sulfonylcyclopropyl]-6-[(3S)-3-methylmorpholin-4-yl]pyrimidin-2-yl]phenyl]-3-[4-(trifluoromethyl)phenyl]urea]", "values": [
      {"measurement": "pIC50", "setting": "[2]", "value": 7.76}
    ]},
    {"smiles": "C[C@H]1COCCN1c1cc(C2(S(=O)(=O)C3CCCC3)CC2)nc(-c2ccc(NC(=O)NC3CCC3)cc2)n1", "note": "[Example 9a]", "values": [
      {"measurement": "pIC50", "setting": "[2]", "value": 7.89}
    ]},
    {"smiles": "CNC(=O)Nc1ccc(-c2nc(N3CCOC[C@@H]3C)cc(C3(S(=O)(=O)c4ccccc4Cl)CC3)n2)cc1", "note": "[Example 76a, 1-[4-[4-[1-(2-chlorophenyl)sulfonylcyclopropyl]-6-[(3S)-3-methylmorpholin-4-yl]pyrimidin-2-yl]phenyl]-3-methylurea]", "values": [
      {"measurement": "pIC50", "setting": "[1]", "value": 8.39}
    ]},
    {"smiles": "CCNC(=O)Nc1ccc(-c2nc(N3CCOC[C@@H]3C)cc(C3(S(=O)(=O)c4ccccc4C(F)(F)F)CC3)n2)cc1", "note": "[Example 10e, 1-ethyl-3-[4-[4-[(3S)-3-methylmorpholin-4-yl]-6-[1-[2-(trifluoromethyl)phenyl]sulfonylcyclopropyl]pyrimidin-2-yl]phenyl]urea]", "values": [
      {"measurement": "pIC50", "setting": "[2]", "value": 8.16}
    ]},
    {"smiles": "C[C@H]1COCCN1c1cc(C2(S(=O)(=O)CCCO)CC2)nc(-c2ccc(NC(=O)NCc3ncc[nH]3)cc2)n1", "note": "[Example 36c, 1-[4-[4-[1-(3-hydroxypropylsulfonyl)cyclopro-pyl]-6-[(3S)-3-methylmorpholin-4-yl]pyrimidin-2-yl]phenyl]-3-(1H-imidazol-2-ylmethyl)urea]", "values": [
      {"measurement": "pIC50", "setting": "[1]", "value": 6.94}
    ]},
    {"smiles": "CCNC(=O)Nc1ccc(-c2nc(N3CCOC[C@@H]3C)cc(C3(S(=O)(=O)C(C)C)CC3)n2)cc1", "note": "[Example 7a, 1-ethyl-3-[4-[4-[(3S)-3-methylmorpholin-4-yl]-6-(1-propan-2-ylsulfonylcyclopropyl)pyrimidin-2-yl]phenyl]urea]", "values": [
      {"measurement": "pIC50", "setting": "[2]", "value": 8.64}
    ]},
    {"smiles": "C[C@@H](CO)NC(=O)Nc1ccc(-c2nc(N3CCOC[C@@H]3C)cc(C3(S(=O)(=O)CCCO)CCC3)n2)cc1", "note": "[Example 43q, 3-[(2S)-1-hydroxypropan-2-yl]-1-[4-[4-[1-(3-hydroxypropylsulfonyl)cyclobu-tyl]-6-[(3S)-3-methylmorpholin-4-yl]pyrimidin-2-yl]phenyl]urea]", "values": [
      {"measurement": "pIC50", "setting": "[1]", "value": 7.55}
    ]},
    {"smiles": "CCS(=O)(=O)C1(c2cc(N3CCOC[C@@H]3C)nc(-c3ccc(NC(=O)NC)cc3)n2)CC1", "note": "[Example 11a, 1-[4-[4-(1-ethylsulfonylcyclopropyl)-6-[(3S)-3-methylmorpholin-4-yl]pyrimidin-2-yl]phenyl]-3-methyl-urea]", "values": [
      {"measurement": "pIC50", "setting": "[2]", "value": 8.38},
      {"measurement": "pIC50", "setting": "[1]", "value": 8.23}
    ]},
    {"smiles": "CC(C)NC(=O)Nc1ccc(-c2nc(N3CCOC[C@@H]3C)cc(C3(S(=O)(=O)c4ccccc4C(F)(F)F)CC3)n2)cc1", "note": "[Example 10d, 1-[4-[4-[(3S)-3-methylmorpholin-4-yl]-6-[1-[2-(trifluoromethyl)phenyl]sulfonylcyclopropyl]pyrimidin-2-yl]phenyl]-3-propan-2-yl-urea]", "values": [
      {"measurement": "pIC50", "setting": "[2]", "value": 7.36}
    ]},
    {"smiles": "CCCNC(=O)Nc1ccc(-c2nc(N3CCOC[C@@H]3C)cc(C3(S(=O)(=O)C(C)(C)C)CC3)n2)cc1", "note": "[Example 18h, 1-[4-[4-(1-tert-butylsulfonylcyclopropyl)-6-[(3S)-3-methylmorpholin-4-yl]pyrimidin-2-yl]phenyl]-3-propylurea]", "values": [
      {"measurement": "pIC50", "setting": "[1]", "value": 8.18}
    ]},
    {"smiles": "C[C@H](CO)NC(=O)Nc1ccc(-c2nc(N3CCOC[C@@H]3C)cc(C3(S(=O)(=O)c4ccccc4)CC3)n2)cc1", "note": "[Example 36ed, 1-[4-[4-[1-(benzenesulfonyl)cyclopropyl]-6-[(3S)-3-methylmorpholin-4-yl]pyrimidin-2-yl]phenyl]-3-[(2R)-1-hydroxypropan-2-yl]urea]", "values": [
      {"measurement": "pIC50", "setting": "[1]", "value": 8.15}
    ]},
    {"smiles": "CCS(=O)(=O)C1(c2cc(N3CCOC[C@@H]3C)nc(-c3ccc(NC(=O)NCC(C)C)cc3)n2)CC1", "note": "[Example 11i, 1-[4-[4-(1-ethylsulfonylcyclopropyl)-6-[(3S)-3-methylmorpholin-4-yl]pyrimidin-2-yl]phenyl]-3-(2-methylpropyl)urea]", "values": [
      {"measurement": "pIC50", "setting": "[2]", "value": 7.53}
    ]},
    {"smiles": "CCNC(=O)Nc1ccc(-c2nc(N3CCOC[C@@H]3C)cc(C3(S(=O)(=O)c4ccc(C#N)cc4Cl)CC3)n2)cc1", "note": "[Example 85f, 3-[4-[4-[1-(2-chloro-4-cyanophenyl)sulfonylcyclopropyl]-6-[(3S)-3-methylmorpholin-4-yl]pyrimidin-2-yl]phenyl]-1-ethylurea]", "values": [
      {"measurement": "pIC50", "setting": "[1]", "value": 7.69}
    ]},
    {"smiles": "CNC(=O)Nc1ccc(-c2nc(N3CCOC[C@@H]3C)cc(C3(S(=O)(=O)c4ccc(Cl)cc4)CCOCC3)n2)cc1", "note": "[Example 23j, 1-[4-[4-[4-(4-chlorophenyl)sulfonyloxan-4-yl]-6-[(3S)-3-methylmorpholin-4-yl]pyrimidin-2-yl]phenyl]-3-methylurea]", "values": [
      {"measurement": "pIC50", "setting": "[1]", "value": 7.50}
    ]},
    {"smiles": "C[C@H]1COCCN1c1cc(C2(S(=O)(=O)c3ccc(Cl)cc3)CC2)nc(-c2ccc(NC(=O)NC3CCC3)cc2)n1", "note": "[Example 27a, 1-[4-[4-[1-(4-chlorophenyl)sulfonylcyclopropyl]-6-[(3S)-3-methylmorpholin-4-yl]pyrimidin-2-yl]phenyl]-3-cyclobutylurea]", "values": [
      {"measurement": "pIC50", "setting": "[1]", "value": 8.41}
    ]}
  ]
}
